Where two headings read alike, the source gives them in different places.

This test concerns the target NSP14 (Severe acute respiratory syndrome coronavirus 2, UniProt P0DTD1). Put plainly: NSP14 MTase inhibition assay at 37° C. (MTase-Glo SAH detection). It counts as biochemical, SARS-CoV-2. The following applies: 0.3 nM NSP14, 2.5 μM SAM, 2.5 μM GpppA RNA, read-out: Nsp14 Mtase Inh. IC50.

A word on the IC50: it is the concentration that gives 50% inhibition. Consider `Cc1c(S(=O)(=O)c2ccc3[nH]ncc3c2)cc(C(=O)NCc2cc(F)cc3cnn(C)c23)n1C` [B.96], for which, under “37° C.”, the IC50 was determined as 1 nM.

For the compound `Cc1c(S(=O)(=O)c2ccc3[nH]ncc3c2)cc(C(=O)NCc2ccnn2C(F)F)n1C` [B.165], the half-maximal inhibitory concentration (IC50) (37° C.) turned out to be 14 nM.

Consider `Cc1c(S(=O)(=O)c2ccc3[nH]ncc3c2)cc(C(=O)N[C@H]2Cc3ccccc32)n1C` (single isomer, unassigned) [B.170], for which the IC50 (37° C.) is 2.5 nM.

Take `Cc1c(S(=O)(=O)c2ccc(F)cc2)cc(C(=O)NCc2cccc3cnn(C)c23)n1C` [A.17]: the IC50 (45 min at 37° C.) was found to be 16 nM.

In the case of `Cc1c(S(=O)(=O)c2ccc3[nH]ncc3c2)cc(C(=O)N[C@@H]2CCN(c3cccc4ccnn34)C2)n1C` [A.55], the IC50 (45 min at 37° C.) is 0.9 nM.

With `Cc1c(S(=O)(=O)c2ccc3occc3c2)cc(C(=O)NCc2cccc3cnn(C)c23)n1C` [A.8], under “45 min at 37° C.”, the IC50 turned out to be 1.8 nM.

Take `Cc1c(S(=O)(=O)c2ccc3[nH]ncc3c2)cc(C(=O)NC2CCc3ccc(C(F)(F)F)cc32)n1C` (racemic) [B.72]: where the note is “37° C.”, the IC50 amounted to 33 nM.

Regarding `Cc1c(S(=O)(=O)c2ccc3[nH]ncc3c2)cc(C(=O)N[C@@H]2CCN(c3cc(C(F)(F)F)ncn3)C2)n1C` [A.94], the IC50 (45 min at 37° C.) is 0.15 nM.

In the case of `Cn1ncc(Cl)c1CNC(=O)c1cc(S(=O)(=O)c2cccc(C#N)c2)c2n1CCC2` [B.192], the IC50 (37° C.) turned out to be 98 nM.

`Cc1[nH]c(=O)c2ccccc2c1CNC(=O)c1cc(S(=O)(=O)c2ccc3[nH]nc(F)c3c2)c(C)n1C` [B.124]: the IC50 (37° C.) is 0.36 nM.

With `Cc1c(S(=O)(=NCCO)c2ccc3[nH]ncc3c2)cc(C(=O)N[C@@H]2CCN(c3ncc(F)cn3)C2)n1C` (stereo partly drawn) [A.102], under “45 min at 37° C.”, the IC50 stood at 0.46 nM.

As to `Cc1c(S(=O)(=O)c2ccc3[nH]ncc3c2)cc(C(=O)N[C@@H]2CCN(c3cccc(C(F)F)c3)C2)n1C` [A.86], the IC50 (45 min at 37° C.) worked out at 2.5 nM.

In the case of `O=C(NCc1c(F)ccc2ncn(C3CC3)c12)c1cc(S(=O)(=O)c2ccc3[nH]nc(F)c3c2)c2n1CCC2` [B.91], for the setting “37° C.”, the IC50 was determined as 0.28 nM.

As for `Cc1c(S(=O)(=O)c2ccc3[nH]ncc3c2)cc(C(=O)NCc2c(F)ccc3occc23)n1C` [A.2], the IC50 (45 min at 37° C.) is 0.32 nM.

Take `Cc1c(S(=O)(=O)c2ccc3[nH]nc(F)c3c2)cc(C(=O)NCc2c[nH]c(=O)c3ccccc23)n1C` [B.95]: the IC50 (37° C.) was 2.2 nM.

For `Cc1c(S(=O)(=O)c2ccc3[nH]ncc3c2)cc(C(=O)N[C@@H]2CCN(c3ccc(C#N)cc3)C2)n1C` [A.57], under “45 min at 37° C.”, the 50% inhibitory concentration (IC50) was found to be 0.57 nM.

With `Cc1c(S(=O)(=O)c2ccc3[nH]ncc3c2)cc(C(=O)N[C@@H]2CCN(c3ncccc3C#N)C2)n1C` [A.37], the half-inhibitory concentration (IC50) (45 min at 37° C.) was below 0.15 nM.

In the case of `Cc1c(S(=O)(=O)c2ccc3[nH]ncc3c2)cc(C(=O)NCc2cccnc2N2CCC(F)(F)C2)n1C` [B.20], the IC50 (37° C.) amounted to 0.75 nM.

For `Cc1c(S(=O)(=O)c2ccc3[nH]ncc3c2)cc(C(=O)N[C@H]2CN(c3ccc(C#N)cn3)CC23CC3)n1C` [A.110], where the note is “45 min at 37° C.”, the IC50 came to 0.7 nM.

On to `Cc1c(S(=O)(=O)c2ccc3ccc(C#N)cc3c2)cc(C(=O)NCc2c(F)ccc3cnn(C)c23)n1C` [B.128], for which, for the setting “37° C.”, the IC50 was found to be 0.93 nM.

Take `Cc1c(S(=O)(=O)c2ccc3[nH]ncc3c2)cc(C(=O)N[C@H]2C[C@@H](Nc3ncc(F)cn3)C2)n1C` [A.97]: the IC50 (45 min at 37° C.) turned out to be 13 nM.

(Values after patent publication US20260226034A1 (The Rockefeller University, priority 2023, published 2026).)
